Results: a melting point compilation (Tetko et al.; mined from patent text by program, amines drawn as free bases though some values may be those of a salt)

First: Cc1ccc(NS(=O)(=O)c2cccs2)c2[nH]c(C(=O)NCCSC(c3ccccc3)(c3ccccc3)c3ccccc3)cc12
Second: Cc1ccc(NS(=O)(=O)Cc2ccccc2)c(OCc2ccccc2)c1CC(=O)O
The melting point of the first is higher: 241 to 242 °C for the first, 132 to 134 °C for the second.

First: CCCN1CCC(c2n[nH]c3cc(F)ccc23)CC1
Second: Cc1cccc(OC2CCN(CCc3c[nH]c4ccccc34)CC2)c1
The melting point of the first is higher: 175 to 177 °C for the first, 145 to 146 °C for the second.

First: CCOP(=O)(CNC(C)(c1ccccc1)c1cc(C(C)(C)C)c(O)c(C(C)(C)C)c1)OCC (stereo unspecified)
Second: COC(=O)CCc1cc(NC(=O)c2ccc(C(=O)Nc3cc(CCC(=O)OC)cc(C(C)(C)C)c3O)s2)c(O)c(C(C)(C)C)c1
The melting point of the first is lower: 104 to 105 °C for the first, 172 to 173 °C for the second.

First: N#Cc1c(N2CCN(C(=O)c3cccs3)CC2)c2cc(Cl)ccc2n(Cc2ccc(F)cc2)c1=O
Second: Cc1cc(-n2cncn2)c2cccc(OCc3c(Cl)ccc(S(=O)(=O)N4CCC[C@H]4C(=O)N4CCN(c5ccccn5)CC4)c3Cl)c2n1
The melting point of the first is higher: 253 °C for the first, 108 °C for the second.

Compared with `COC(=O)C=Cc1cccc2cc[nH]c12`, `Cc1nnc(-c2cc3cccc(NS(=O)(=O)c4cccs4)c3[nH]2)s1` is higher in melting point: 85 to 86 °C for the first, 308 to 309 °C for the second.

Compared with `N=C(Nc1ccc2c(c1)CN1CCOCC1C2)c1cccs1` (stereo unspecified), `O=C(CSc1ccncc1)Nc1cccc(-c2ccnc3c(C(=O)c4cccs4)cnn23)c1` is lower in melting point: 190 to 194 °C for the first, 138 to 144 °C for the second.

First: COC(=O)Nc1nc2cc(C(c3ccc(F)cc3)n3cncn3)ccc2[nH]1 (stereo unspecified)
Second: CS(=O)(=O)c1ccc(-c2sc(-c3ccc(F)c(Cl)c3)nc2-c2ccc(F)cc2)cc1
The melting point of the first is higher: 250 °C for the first, 165 to 167 °C for the second.

First: COC(=O)c1ccc(OCCNC(=O)C2Cc3ccccc3N2S(=O)(=O)c2ccc(-c3ccc(F)cc3)cc2)cc1Cl (stereo unspecified)
Second: CCCCC(=O)Nc1ccc(Cl)c(-n2nc(CCCC)n(Cc3ccc(-c4ccccc4S(=O)(=O)NC(=O)OC(C)(C)C)cc3)c2=O)c1
The melting point of the first is lower: 70 to 79 °C for the first, 177 to 179 °C for the second.

Compared with `CCCCCCCCCCCCCCCCCCOC(=O)c1cc(C(=O)OCCCCCCCCCCCCCCCCCC)c(C(=O)O)cc1C(=O)O`, `CCCCCCCCCCCCc1nnn[nH]1` is lower in melting point: 133 to 137 °C for the first, 68 to 70 °C for the second.

First: N=C1SCCN1c1ccc(N)cc1[N+](=O)[O-]
Second: CN(C)C(=S)SC(C[N+](=O)[O-])c1ccc(Cl)cc1Cl (stereo unspecified)
The melting point of the first is higher: 138 to 139 °C for the first, 127 to 128 °C for the second.

Compared with `COc1cc2c(cc1F)CCN=C2C1(c2ccccc2Cl)CC1`, `Oc1cnc(-c2ccccc2)c(F)c1` is lower in melting point: 172 to 176 °C for the first, 150 to 151 °C for the second.

First: CC1(C)OC(/C=C/c2ccc(Br)cc2)=CC1=O
Second: Cc1ccc2c(c1)C(C(=O)O)c1cc(Br)ccc1CO2 (stereo unspecified)
The melting point of the first is lower: 109 to 110 °C for the first, 168 to 170 °C for the second.

First: CC(C#Cc1ccc(Oc2cncc(Cl)c2)o1)N(O)C(N)=O (stereo unspecified)
Second: N#Cc1cnc2cc(F)ccc2c1Cl
The melting point of the first is lower: 150 °C for the first, 163 to 165 °C for the second.

First: CSc1ccc(COC(=O)OCc2ccc([N+](=O)[O-])cc2)cc1
Second: COc1ccc(-c2[nH]nc3c2C(=O)c2c(NC(=O)Cc4ccc(Cl)cc4)cccc2-3)cc1
The melting point of the first is lower: 84 to 86 °C for the first, 238 °C for the second.

Compared with `CCOC(=O)N1CCC2(CC1)C(=O)NCN2c1ccc(F)cc1`, `NS(=O)(=O)c1ccc(-n2sc3cc(F)ccc3c2=O)cc1` is higher in melting point: 153 °C for the first, 265 to 266 °C for the second.

First: NS(=O)(=O)c1ccc(N2N=C(C(F)(F)F)CC2c2ccc(F)cc2F)cc1 (stereo unspecified)
Second: CC(C)(C)COc1c(-c2ccc(S(C)(=O)=O)cc2)cnn(-c2ccc(F)c(F)c2)c1=O
The melting point of the first is higher: 161 to 162 °C for the first, 126 to 128 °C for the second.

First: CSc1noc(-c2ccc(OCCCc3ccccc3)cc2)c1C#N
Second: N#Cc1ccc2c(c1)c(-c1ccccc1)nn2CCCBr
The melting point of the first is lower: 99 to 100 °C for the first, 100 to 102 °C for the second.

Compared with `CCP(=O)(OC)C(O)[C@H](CC1CCCCC1)NC(=O)[C@H](CC(C)C)NC(=O)[C@H](Cc1ccccc1)NC(=O)C1CCCC1` (stereo partly specified), `COCCNC(=O)COc1ccn2nc(-c3ccccc3)c(-c3ccc(=O)n(C(C)C)n3)c2c1` is lower in melting point: 155 to 165 °C for the first, 144 to 146 °C for the second.

Compared with `CCOc1ccc(C2=NN(c3ccc(C(=O)N4CCN(c5ccc(C(F)(F)F)cn5)CC4)cc3)C(=O)[C@@H]3CC=CC[C@H]23)cc1OCC`, `N#Cc1cc(-c2cccnc2)nn1-c1ccc(NC(=O)c2ccc(OCCCC3OCCO3)nc2)cc1` is higher in melting point: 121 to 123 °C for the first, 197 to 198 °C for the second.

`CN(C)c1cc(Cl)c(C=O)c(Cl)c1` and `Cn1c(=O)cc(-c2cccc(Cl)c2)c2cccnc21` cannot be ordered by melting point: 169 to 171 °C for the first, 168 to 170 °C for the second.

Compared with `CSc1cccc(-c2nc(=O)c3ccccc3s2)n1`, `O=C1NC(=O)C(c2cn3c4c(cccc24)C(O)CC3)=C1c1c[nH]c2ccccc12` (stereo unspecified) is lower in melting point: 207 to 208 °C for the first, 165 to 168 °C for the second.

First: CS(=O)(=O)Nc1cc2oc(N)cc(=O)c2cc1Oc1ccccc1
Second: C=CCNc1cc(C(=O)O)cc(S(N)(=O)=O)c1-c1ccccc1
The melting point of the first is higher: 223 to 225 °C for the first, 169 to 172 °C for the second.

First: Cc1nc2nc(C(=O)NO)cc(S)n2n1
Second: Cc1c(-c2ccc(S)nn2)ssc1=S
The melting point of the first is lower: 178 to 179 °C for the first, 245 °C for the second.

Compared with `C=Cc1cc(CNC(=O)Nc2ccc(C(C)(C)C)cc2)cc(F)c1NS(C)(=O)=O`, `COC1(c2ccc(C=Cc3cc(F)cc(F)c3NC(=O)C(C)(C)C)cc2)CCOCC1` is lower in melting point: 167 to 170 °C for the first, 77 to 79 °C for the second.

First: N#CCN1CC[C@@H](NCc2ccccc2)[C@H](O)C1 (relative stereo)
Second: CC(C)(C)OC(=O)CCN1CCN(CC2CN(c3ccc(C(=N)NC(=O)c4ccccc4)cc3)C(=O)O2)CC1 (stereo unspecified)
The melting point of the first is lower: 113 °C for the first, 136 to 137 °C for the second.

First: ON=C1Cc2ccccc2C(=NO)c2ccccc21
Second: COc1ccccc1-n1c(-c2cc(-c3ccncc3)c(N3CCOCC3)s2)nc2ccccc2c1=O
The melting point of the first is higher: 220 to 221 °C for the first, 204 to 205 °C for the second.

First: CCCCOC(=O)[C@H]1NC(=O)[C@H]1N (relative stereo)
Second: CC1CN(c2ccc(N3CC(CNC(=O)CC#N)OC3=O)cc2F)CCC1=CC#N (stereo unspecified)
The melting point of the first is lower: 87 to 89 °C for the first, 102 to 104 °C for the second.

Compared with `NC(N)=NC(=O)Cn1c(Cl)c(Cl)c(Cl)c1Cl`, `Cc1cnc(C(=O)O)c(-c2ccc(Cl)c(C(=O)NCC34CC5CC(CC(C5)C3)C4)c2)c1` is lower in melting point: 215 to 217 °C for the first, 125 to 130 °C for the second.

First: COc1cc(CCCN2CCc3cc(OC)c(OC)cc3C2)ccc1NC(=O)c1cccc2c(=O)c3cccc(OC)c3[nH]c12
Second: COc1cc2c(Oc3cnc4[nH]ccc4c3)ncnc2cc1OCCCN1CCCC1
The melting point of the first is higher: 188 °C for the first, 184 to 186 °C for the second.

First: CSC(=S)C12CC3CC(CC(C3)C1)C2
Second: COc1ccc(C2=CCC(C#N)CC2)c2c1OCCO2 (stereo unspecified)
The melting point of the first is lower: 64.5 to 66 °C for the first, 79 °C for the second.

Compared with `CCCCc1nn(-c2cc(NC(=O)CC)ccc2Br)c(=O)n1Cc1ccc(-c2ccccc2S(=O)(=O)NC(=O)OC(C)(C)C)cc1F`, `COc1ccnc(CCc2nc3cc(-c4ccc(S(=O)(=O)Nc5ccc(N(C)C)cc5)cc4)cnc3[nH]2)c1` is higher in melting point: 123 to 126 °C for the first, 221 to 222 °C for the second.

First: Nc1ncc2ncn([C@@H]3C[C@H](O)[C@@H](O)[C@H]3O)c2n1 (racemic)
Second: Cc1cc(Br)cnc1CCCCNc1ncc(Cc2ccc3c(c2)OCO3)c(=O)[nH]1
The melting point of the first is higher: 153 to 155 °C for the first, 145 to 146 °C for the second.

First: Cc1cn(Nc2cccc(Cl)c2)c(=S)n1-c1ccc(Br)cc1
Second: Oc1cc(C(F)(F)F)[nH]n1
The melting point of the first is higher: 220 °C for the first, 211 to 215 °C for the second.
